Source: patent publication US5990158A, “Carboxylic acid derivatives, method of manufacturing the same and therapeutic agents containing these compounds” (Kotobuki Seiyaku Co., Ltd., priority 1996, dated 1999)

Experiments:
MMP-2 (gelatinase A) = molecular target: T1, MMP-2 (gelatinase A) (Homo sapiens, UniProt P08253); assay: MMP-2 (gelatinase A) inhibitory activity, FITC-labeled type IV collagen degradation; assay type: biochemical; conditions: 50% inhibition of collagen type IV degradation; activated pro MMP-2 from transfected COS-1 cells; 42° C., 4 h
T1 construct: made in house; host or cells: COS-1 cells transfected with human pro-MMP-2 cDNA (secreted into culture medium)
T1 sequence (P08253 110-660): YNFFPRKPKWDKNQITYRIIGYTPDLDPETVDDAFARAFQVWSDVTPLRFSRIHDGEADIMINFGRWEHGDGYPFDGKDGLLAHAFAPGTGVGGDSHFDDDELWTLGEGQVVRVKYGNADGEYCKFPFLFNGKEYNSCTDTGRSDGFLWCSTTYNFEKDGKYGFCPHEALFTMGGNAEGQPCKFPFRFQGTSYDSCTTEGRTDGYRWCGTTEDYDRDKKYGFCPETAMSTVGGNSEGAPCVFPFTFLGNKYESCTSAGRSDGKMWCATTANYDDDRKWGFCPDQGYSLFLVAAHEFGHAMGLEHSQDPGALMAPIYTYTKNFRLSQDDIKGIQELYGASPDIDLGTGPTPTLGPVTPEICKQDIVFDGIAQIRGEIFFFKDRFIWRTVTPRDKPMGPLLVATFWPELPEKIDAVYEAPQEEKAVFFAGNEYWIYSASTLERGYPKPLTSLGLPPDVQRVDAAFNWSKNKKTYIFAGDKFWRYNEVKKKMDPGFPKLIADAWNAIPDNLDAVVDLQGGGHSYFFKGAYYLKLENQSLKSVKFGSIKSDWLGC
Procedure: (§1) Experiment 2: MMP-2 (gelatinase A) and MMP-9 (gelatinase B) inhibitory activities.
(§2) Pro MMP-2 was obtained from culture medium separated from human pro-MMP-2 cDNA tranfected COS-1 cells. It was activated by 1 mM (p-aminophenyl)mercury acetic acid, and MMP-9, derived human fibrosarcome,was purchased from Yagai Co. Ltd. Inhibition of both enzyme activities were estimated by enzyme assay using type IV collagenase activity assay kit (Yagai Co. Ltd., Biswaz, C. et al., J. Cell.Biochem., 28, 39 (1984)). MMP-2 or MMP-9 (0.01 U/ml), test compound (several concentrations), and FITC-labeled type IV collagen (derived bovine placenta, 25 μg) were incubated in 100 μl of 0.05M Tris - HCl buffer (pH 7.5) containing 200 mM NaCl and 5 mM CaCl2 at 42° C. for 4 h. Inhibitory activity of compound was evaluated by same as that of MMP-1 assay. Unchanged type IV collagen was precipitated by centrifugation, and the degradation percent of substrate was calculated by comparison with a fluorescence intensity of heat denatured substrate as 100%. Inhibition of enzyme activity was expressed as an IC50 value which was the concentration of test compound necessary to produce 50% inhibition of collagen type IV degradation by enzyme.

MMP-9 (gelatinase B) = molecular target: T2, MMP-9 (gelatinase B) (Homo sapiens, UniProt P14780); assay: MMP-9 (gelatinase B) inhibitory activity, FITC-labeled type IV collagen degradation; assay type: biochemical; conditions: 50% inhibition of collagen type IV degradation; MMP-9 derived from human fibrosarcoma; 42° C., 4 h
T2 construct: purchased Yagai Co. Ltd; host or cells: human fibrosarcoma
Procedure: as §1, §2

T2 sequence (P14780 94-707): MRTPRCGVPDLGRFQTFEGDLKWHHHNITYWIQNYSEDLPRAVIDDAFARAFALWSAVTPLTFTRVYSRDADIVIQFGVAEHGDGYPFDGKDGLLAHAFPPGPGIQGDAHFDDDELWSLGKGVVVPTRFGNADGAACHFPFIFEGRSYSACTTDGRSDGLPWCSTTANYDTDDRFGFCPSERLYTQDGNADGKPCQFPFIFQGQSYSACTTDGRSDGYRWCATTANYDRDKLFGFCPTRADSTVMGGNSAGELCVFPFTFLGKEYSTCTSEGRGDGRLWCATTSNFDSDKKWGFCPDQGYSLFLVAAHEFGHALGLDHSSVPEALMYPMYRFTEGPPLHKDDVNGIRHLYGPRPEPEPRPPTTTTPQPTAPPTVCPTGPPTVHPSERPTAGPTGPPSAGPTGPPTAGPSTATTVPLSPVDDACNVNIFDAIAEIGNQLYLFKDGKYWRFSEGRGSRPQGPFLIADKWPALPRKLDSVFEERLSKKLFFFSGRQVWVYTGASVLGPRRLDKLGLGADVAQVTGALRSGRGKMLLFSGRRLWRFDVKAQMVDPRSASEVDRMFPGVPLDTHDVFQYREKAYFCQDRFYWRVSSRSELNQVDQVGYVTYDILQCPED

SMILES | IC50 (MMP-2 (gelatinase A)) [nM] | IC50 (MMP-9 (gelatinase B)) [nM]
CNC(=O)[C@@H](NC(=O)[C@H](CCCOc1ccc(OC)cc1)CC(=O)O)C(C)(C)C [Compound 24, N-[(2R)-2-(1'-Carboxymethyl)-5-[(4-methoxyphenyl)oxy]pentanoyl]-L-tert-leucine N-Methylamide] | 140 | 7.2
CCOc1ccc(OCCCC[C@H](CC(=O)O)C(=O)N[C@@H](Cc2ccccc2)C(=O)NC)cc1 [Compound 15, N-((2R)-2-(1'-Carboxymethyl)-6-[(4-ethoxyphenyl)oxy]hexanoyl]-L-phenylananine N-Methylamide] | 61 | 420
CNC(=O)[C@H](Cc1ccc(OC)cc1)NC(=O)[C@H](CCCCOc1ccc(OC)cc1)CC(=O)OCc1oc(=O)oc1C [Compound 64, (2S)-2-[(2R)-2-(2'-(5-Methyl-2-oxo-1,3-dioxolen-4-yl)-methylene-oxy-2'-oxo-ethyl]-6-[(4-methoxyphenyl)oxy]-hexanoyl]amino-3-(4-methoxy)phenylpropanoylmethylamide] | 2300 | 980
CNC(=O)[C@@H](NC(=O)[C@H](CCCOc1ccc(OC)cc1)CC(=O)NO)C(C)(C)C [Compound 54, N-[(2R)-2-(2'-Hydroxyamino-2'-oxo-ethyl)-5-[(4-methoxyphenyl)oxy]-pentanoyl]-L-tert-leucine N-Methylamide] | 5.6 | 0.11
COc1ccc(OCCC[C@H](CC(=O)O)C(=O)N[C@@H](Cc2ccccc2)C(=O)NCCS(N)(=O)=O)cc1 [Compound 12, 2-[[N-(2R)-2-(1'-Carboxymethyl)-5-[(4-methoxyphenyl)oxy]pentanoyl]-L-phenylalanyl]amino-ethanesulfonamid] | 21 | 3
CNC(=O)[C@H](Cc1ccccc1)NC(=O)[C@H](CCc1ccc2cccccc1-2)CC(=O)O [Compound 2, N-[(2R)-2-(1'-Carboxymethyl)-4-(azulene-1-yl)butyroyl]-L-phenylalanine N-Methylamide] | 390 | 1300
CNC(=O)[C@@H](NC(=O)[C@H](CCc1ccc2cccccc1-2)CC(=O)O)C(C)(C)C [Compound 4, N-[(2R)-2-(1'-Carboxymethyl)-4-(azulene-1-yl)butyroyl]-L-tert-leucine N-Methylamide] | 1000 | 300
CNC(=O)[C@@H](NC(=O)[C@@H](CC(=O)NO)CC(C)(C)COC)C(C)(C)C [Compound 60, N-[(2R)-2-(2'-Hydroxyamino-2'-oxo-ethyl)-4,4-dimethyl-5-methoxy-pentanoyl]-L-tert-leucine N-Methylamide] | > 10000 | 6800
CNC(=O)[C@H](Cc1ccc(OC)cc1)NC(=O)[C@@H](CC(=O)NO)CC(C)(C)COC [Compound 59, (2S)-2-[(2R)-2-(2'-Hydroxyamino-2'-oxo-ethyl)-4,4-dimethyl-5-methoxy-pentanoyl]amino-3-(4-methoxy)phenylpropanoyl-methylamide] | 6800 | 1500
CNC(=O)[C@@H]1Cc2ccccc2CN1C(=O)[C@H](CCCOc1ccc(OC)cc1)CC(=O)O [Compound 27, N-[(2R)-2-(1'-Carboxymethyl)-5-[(4-methoxyphenyl)oxy]pentanoyl]-L-tetrahydroisoquinoline N-Methylamide] | > 10000 | 1500
CNC(=O)[C@H](Cc1ccccc1)NC(=O)[C@H](CCCc1ccc2cccccc1-2)CC(=O)O [Compound 5, N-[(2R)-2-(1'-Carboxymethyl)-5-(azulene-1-yl)pentanoyl]-L-phenylalanine N-Methylamide] | > 10000 | 2800
COc1ccc(OCCC[C@H](CC(=O)NO)C(=O)N[C@H](C(=O)NC(C)(C)C)C(C)(C)C)cc1 [Compound 55, N-[(2R)-2-(2'-Hydroxyamino-2'-oxo-ethyl)-5-[(4-methoxyphenyl)oxy]-pentanoyl]-L-tert-leucine N-tert-Butylamide] | 21 | 0.23

Now from value to molecule:

IC50 (MMP-2 (gelatinase A)) [nM] | IC50 (MMP-9 (gelatinase B)) [nM] | SMILES
3.2 | 0.32 | CCOc1ccc(C[C@H](NC(=O)[C@H](CCCCOc2ccc(OC)cc2)CC(=O)NO)C(=O)NC)cc1 [Compound 53, (2S)-2-[(2R)-2-(2'-Hydroxyamino-2'-oxo-ethyl)-6-[(4-methoxyphenyl)oxy]-hexanoyl]amino-3-(4-ethoxy)phenylpropanoylmethylamide]
50 | 5.1 | CNC(=O)[C@H](Cc1ccccc1)NC(=O)[C@H](CCCOc1ccc(OC)cc1)CC(=O)O [Compound 10, N-[(2R)-2-(1'-Carboxymethyl)-5-[(4-methoxyphenyl)oxy]pentanoyl]-L-phenylanine N-Methylamide]
1.3 | 0.41 | CNC(=O)[C@H](Cc1ccccc1)NC(=O)[C@H](CCCCOc1ccc(OC)cc1)CC(=O)NO [Compound 44, N-[(2R)-2-(2'-Hydroxyamino-2'-oxo-ethyl)-6-[(4-methoxyphenyl)oxy]hexanoyl]-L-phenylalanine N-Methylamide]
76 | 13 | COc1ccc(C[C@H](NC(=O)[C@H](CCCOc2ccc(OC)cc2)CC(=O)O)C(=O)NC(C)(C)C)cc1 [Compound 19, (2S)-2-[(2R)-2-(1'Carboxymethyl)-5-[(methoxyphenyl)oxy]pentanoyl]amino-3-(4-methoxy)phenylpropanoyl-tert-butylamide]
11 | 1.2 | CNC(=O)[C@H](Cc1ccc(OC)cc1)NC(=O)[C@H](CCOc1ccc(OC)cc1)CC(=O)NO [Compound 47, (2S)-2-[(2R)-2-(2'-Hydroxyamino-2'-oxo-ethyl)-4-[(4-methoxyphenyl)oxy]-butyloyl]amino-3-(4-methoxy)phenylpropanoylmethylamide]
9 | 0.15 | CNC(=O)[C@H](Cc1ccc(OC)cc1)NC(=O)[C@H](CCCOc1ccc(OC)cc1)CC(=O)NO [Compound 48, (2S)-2-[(2R)-2-(2'-Hydroxyamino-2'-oxo-ethyl)-5-[(4-methoxyphenyl)oxy]-pentanoyl]amino-3-(4-methoxy)phenyl-propanoylmethylamide]
26 | 0.42 | COc1ccc(C[C@H](NC(=O)[C@H](CCCOc2ccc(OC)cc2)CC(=O)NO)C(=O)NC(C)(C)C)cc1 [Compound 49, (2S)-2-[(2R)-2-(2'-Hydroxyamino-2'-oxo-ethyl)-5-[(4-methoxyphenyl)oxy]-pentanoyl]amino-3-(4-methoxy)phenyl-propanoyl-tert-butylamide]
46 | 13 | CNC(=O)[C@H](Cc1ccc(OC)cc1)NC(=O)[C@H](CCOc1ccc(OC)cc1)CC(=O)O [Compound 17, (2S)-2-[(2R)-2-(1'-Carboxymethyl)-4-[(4-methoxyphenyl)-oxy]butyroyl]amino-3-(4-methoxy)phenylpropanoylmethylamide]
